Data on 3 molecules can be found in patent US12076300B2, “Dosage regime with esketamine for treating major depressive disorder” (priority 2019, dated 2024).

Data set [1] is described as follows: Single dose, randomized, open-label, crossover study in healthy volunteers: pharmacokinetics. The conditions noted are these: plasma analyte after single dose esketamine hydrochloride 20 mg oral solution; 15 subjects. The source says:
A randomized, open-label 4-way crossover study in 16 healthy male and female subjects was held wherein said subjects were placed in a randomly assigned order and administered esketamine. Each subject was assigned to 1 of 4 treatment sequences according to a randomization code such that 4 subjects were assigned to each treatment sequence. There was a wash-out period of at least 7 days between dosing periods with doses consisting of either oral or intravenous esketamine hydrochloride. The study consisted of an eligibility screening period of 28 days, 4 study periods involving administration of a single dose of esketamine hydrochloride followed by safety assessments with blood sampling for PK purposes up to 72 hours after study drug administration, discharge at 72 hours after study drug administration and a follow-up visit 7-14 days after the last PK blood sample was taken on Day 4.

Data set [2] concerns human peripheral blood lymphocytes (HPBL).
Method: The clastogenic potential of (S)-norketamine was evaluated in the in vitro mammalian chromosome aberration test using human peripheral blood lymphocytes (HPBL) in both the absence and presence of an induced metabolic activation system (the 9000 g supernatant [S9] microsomal fraction of liver homogenate from rats exposed to phenobarbital/5,6-benzoflavone).
The study was conducted in 2 phases, with a preliminary toxicity test used to determine the appropriate concentrations for the definitive chromosomal aberration assay. Water was used as a negative (vehicle) control. In both phases, the cells were treated for 3 and 21 hours in the absence of S9 mix and for 3 hours in the presence of S9 mix. The mitotic index was assessed for all cultures to determine cytotoxicity. Ten concentrations, ranging from 2.62 to 260.16 μg/mL, were evaluated in the preliminary toxicity test.
The subject of data set [3] is male Sprague Dawley rats. The experiment in a line: 7-day forced swim test. It is filed as in vivo. Here is the method:
Groups of, 6-7 week old, male Sprague Dawley rats were administered esketamine by intraperitoneal injection and their behavioral despair assessed by a forced swim test. The animals, in cohorts of 10, were administered either a single dose of 15 mg/kg esketamine, 7 daily doses of either 7.5 or 15 mg/kg esketamine or a vehicle control, and the test performed 30 minutes after dosing. Statistical evaluation was performed using an ordinary One-Way ANOVA, t Test and an Uncorrected Fisher's LSD comparisons test.

A short description of data set [4]: Repeated dose 28 day toxicokinetics. The conditions noted are these: males vs females. Here is the method: The objective of the study was to assess the potential toxicity, neurobehavioral effects, and toxicokinetics (TK) of esketamine when administered orally, via gavage, to Sprague Dawley rats for 28 days and to evaluate recovery during a 14-day drug-free period. Fifty male and 50 female rats were randomized into 4 groups (15/sex/Groups 1 and 4; 10/sex/Groups 2 and 3). Esketamine was administered via oral gavage once daily for 28 consecutive days to males at 0 (vehicle control), 6, 10 or 30 mg/kg/day and females at 0 (vehicle control), 2, 10 or 20 mg/kg/day in a dose volume of 10 mL/kg. Animals were observed until euthanized and necropsied on Day 29 (10/sex/group) or 43 (5/sex from Groups 1 and 4). Toxicity was evaluated based on mortality, clinical observations, body weights, food consumption, ophthalmology, motor activity, functional observational battery, clinical pathology (clinical chemistry, hematology, coagulation and urinalysis), organ weights, anatomic (macroscopic or microscopic) pathology. Toxicokinetic animals (3/sex/Group 1; 6/sex/Groups 2, 3, and 4) were similarly dosed and bled on Day 1 and during Week 4 for toxicokinetic analysis.

A short description of data set [5]: Pharmacokinetics of 40 mg oral esketamine in MDD participants treated with an antidepressant. The conditions noted are these: 40 mg oral esketamine hydrochloride once daily for 7 days, 15 MDD subjects. It is filed as in vivo, human. Here is the method: An 18 subject in patient study to assess the safety, tolerability, and pharmacokinetics of 40 mg oral esketamine in MDD participants currently treated with an antidepressant drug was held. In an, up to, 35 day screening phase, the subjects were assessed for study eligibility and, if needed, washed out from disallowed drugs. During this period, it was also determined whether the subject's current dose of oral antidepressant medication had been stable for at least 4 weeks.

Data set [6] has as its system human peripheral blood lymphocytes (HPBL). Here is the method: The clastogenic potential of esketamine was evaluated in the in vitro mammalian chromosome aberration test using human peripheral blood lymphocytes (HPBL) in both the absence and presence of an induced metabolic activation system (the 9000 g supernatant [S9] microsomal fraction of liver homogenate from rats exposed to Aroclor-1254).
The study was conducted in 2 phases, with a preliminary toxicity test used to determine the appropriate concentrations for the definitive chromosomal aberration assay. Water was used as a negative (vehicle) control. Toxicity (defined as ≥45% reduction in MI relative to the vehicle control) was evaluated at 9 concentrations, ranging from 0.0238 to 238 μg/ml, after exposure of HPBL to esketamine for 20 hours in the absence of S9 activation, or for 4 hours, either in the presence or absence of S9 activation, followed by a 16-hour recovery period.
The definitive chromosome aberration assay evaluated HPBL cells after exposure to esketamine for 20 hours in the absence of S9 activation, or for 4 hours, either in the presence of absence of S9 activation, followed by a 16-hour recovery. Positive controls for chromosomal aberrations in non-activated and S9-activated evaluations, respectively, consisted of mitomycin C (MMC, 0.6 and 0.3 μg/mL for the 4- and 20-hour exposures, respectively) and cyclophosphamide (CP, 2.5, 5, and 7.5 μg/mL). […] Initially, the doses selected for evaluation of chromosomal aberrations were 60, 120, and 238 μg/mL for the non-activated 4- and 20-hour treatment conditions; and 30, 60, and 200 μg/mL for the S9-activated 4-hour treatment condition.
This is another data set of the same source.

The conditions of data set [7]: Domino (2010); cited from earlier work.
For data set [8], the system named is healthy male and female subjects. Kind of data set: Single dose crossover study in healthy volunteers: treatment-emergent adverse events. In kind it is in vivo, human. The note with it: all treatments, 16 subjects. The source says: A total of 128 TEAEs (treatment-emergent adverse event) were reported by 15 of 16 (94%) subjects of which 79 TEAEs reported by 14 of 16 (88%) subjects were to be related to the study drug. Overall, a total of 14 of 128 TEAEs reported by 4 (25%) subjects were of moderate severity and 114 of 128 TEAEs reported by 15 (94%) subjects were of mild severity. […] The most frequently occurring adverse events (reported more than twice) were headache, dizziness, hypokinesia, feeling abnormal, fatigue, euphoric mood inappropriate affect, nausea and hyperhidrosis. Table 4 presents the frequency of the most frequently reported related TEAEs as a percentage of the subjects that experienced an adverse effect per treatment.

Regarding `N[C@]1(c2ccccc2Cl)CCC[C@H](O)C1=O` [(2S,6S)-OH-Norketamine, (2S,6S)-2-Amino-2-(2-chlorophenyl)-6-hydroxycyclohexanone], in data set [1], the “t1/2, geometric mean” value was 7.83 h.

Consider `N[C@]1(c2ccccc2Cl)CCCCC1=O` [(S)-norketamine, (2S)-2-(2-Chlorophenyl)-2-(amino) cyclohexanone], for which the “clastogenicity (structural and numerical chromosomal aberrations)” value in data set [2] is “non-clastogenic”.

Regarding `CN[C@]1(c2ccccc2Cl)CCCCC1=O` [esketamine, (2S)-2-(2-Chlorophenyl)-2-(methylamino) cyclohexanone], the “antidepressant-like effect, continuous 7-day treatment vs single acute dose” value in data set [3] (same dose levels) is “stronger antidepressant-like effect than a single acute dose”. Further, the “effect on immobility time, acute treated rats” value in data set [3] (single dose of 15 mg/kg intraperitoneal, test 30 minutes after dosing) is 42 % of control. For the same molecule, the “exposure by sex after normalization for dose level differences” value in data set [4] is “males had lower exposures than females”. Besides, in data set [5], the “mean esketamine Cmax” value was determined as 11.82 ng/mL. Moreover, the AUC(0-t) in data set [5] (human, in vivo, read-out: mean esketamine AUC0-t) was found to be 35.6 ng·h/mL. In data set [6], the “Cochran-Armitage test for dose response of structural aberrations” value is listed as “positive for a dose response”; the “induction of numerical chromosomal aberrations” value is recorded as “negative”; the “induction of structural and numerical chromosomal aberrations” value is on record as “negative”; the “toxicity (≥45% reduction in MI relative to the vehicle control), preliminary toxicity test” value is on record as “not observed at any dose”. For the same molecule, the “cytotoxicity (≥45% reduction in mitotic index relative to the vehicle control), definitive assay” value in data set [6] (non-activated 4- and 20-hour treatment, 30 to 238 μg/ml) is “not observed at any esketamine dose”. Moreover, in data set [7], the “psychotomimetic side effects compared with (R)-ketamine” value is on record as “greater undesirable psychotomimetic side effects”. Besides, in data set [8], the “total number of TEAEs reported” value is given as 128.
